Experimental data reported in US20210386737A1, “DIHYDROIMIDAZOPYRAZINONE COMPOUND, COMPOSITION INCLUDING SAME, AND USE THEREOF” (priority 2018, published 2021).

Assays:
[1] = tested on: phospho-p90RSK in A375 cell line; assay: A375 cell assay (phospho-p90RSK sandwich ELISA); type: cell-based; details: Homo sapiens, A-375; inhibition of phospho-p90RSK, A375 cells (BRAF V600E), 4 hours incubation
Experimental: The cells in the logarithmic growth phase were taken and the trypan blue exclusion method was used to detect the cell viability to ensure that the cell viability is above 90%. The cell concentration was adjusted, and 150 μL cell suspension was added to a 96-well plate, which was incubated at 37° C., 5% CO2 for 16 h. The maximum concentration of the drug to be tested was 10 μM, which was diluted into 10 concentrations with a 3-fold gradient dilution, 50 μL drug solution was added to each well of the 96-well plate in duplicate, and incubation was continued for 4 hours. After removing the medium, 0.2 ml cell lysis solution and […] were added to each well, which was incubated on ice for 30 mm, and centrifuged for 10 min at 4° C. to afford cell lysis solution. PathScan®Phospho-p90RSK (Thr359) Sandwich ELISA Kit (CST, catalog No. 91959C) was used for detecting the inhibitory rate of the compounds of the present disclosure on phospho-p90RSK, to each well 100 μL cell lysis solution was added, and incubated at 4° C. overnight. The plate was washed, added with 100 μL reconstituted Detection Antibody, and incubated at 37° C. for 1 h. The plate was washed, added with 100 μL reconstituted HRP-Linked secondary antibody, and incubated at 37° C. for 30 min. The plate was washed, added with 100 μL TMB Substrate, and after incubating at 25° C. for 30 min, 100 μL STOP Solution was added, and EnVision (Perkin Elmer 2104) was used to detect fluorescence value, and inhibitory rates under the effect of different concentrations of compounds were calculated. The calculation of IC50 was carried out using Prism Graphpad 8.0, software.
Phospho-p90RSK cell assay was conducted in A375 cell line, which has human malignant melanoma with BRAF V600E mutation that upregulates the MAPK pathway, and therefore has increased endogenous levels of phospho-ERK and phospho-p90RSK.

ERK2 kinase = target: T1, ERK2 kinase (Homo sapiens, UniProt P28482); assay: ERK2 kinase inhibition (ADP-Glo); type: biochemical; details: ADP-Glo kit, 20 minutes reaction at room temperature
T1 construct: purchased Promega V1961
Description: ERK2 kinase (Promega, catalog No. V1961), RET (V804M), Active (Signalchem, catalog No, R02-12GG), ADP-Glo™ kit (Promega, catalog No. V9102), GDC-0994 (MCE, catalog No. HY-15947), ATP (Promega, catalog No. V910B), DMSO (Sigma, catalog No. D8418), DTT (Invitrogen, catalog No. P2325), 384-well plate (Greiner, catalog No. 784075), polypropylene 384-well plate (Labcyte, catalog No. P-05525-BC), polypropylene 96-well plate (Nunc, catalog No. 249944), plate shaker (Thermo, catalog No. 4625-1 CECN/THZ Q), centrifuge (Eppendorf, catalog No. 5810R), multilabel ELISA reader Envision 2104 multi-label Reader (PerkinElmer, catalog No. 74785), Echo acoustic dispenser (Labcyte, catalog No. 550).
Compound formulation: The test compounds were dissolved in DMSO to prepare a 10 mM stock solution. Then, the stock solution was diluted 10 times with a 3-fold gradient. When addition, 10-fold dilution was made with buffer solution.
ERK2 kinase assay: In 1× kinase buffer solution, ERK2 kinase was mixed with pre-formulated and diluted compounds of different concentrations for 10 minutes in duplicate for each concentration. The corresponding substrate and ATP were added thereto, and reacted at room temperature for 20 minutes (both a negative and a positive control were set, wherein the negative is blank control, and the positive control is GDC-0994). Detection reagent was added after the reaction is complete (reagent in ADP-Glo™ kit), and after 40 minutes of incubation at room temperature, Envision 2104 multi-label Reader ELISA reader was used for detection of enzyme activities under the presence of compounds of the present disclosure with different concentrations, and the inhibitory activities of different concentrations of compounds on enzyme activity were calculated. GraphPad Prism 6.0 software was used for data analysis, nonlinear curve regression was used to fit the data to get the dose-response curve, thereby IC50 values were calculated.

T1 sequence (P28482 whole entry): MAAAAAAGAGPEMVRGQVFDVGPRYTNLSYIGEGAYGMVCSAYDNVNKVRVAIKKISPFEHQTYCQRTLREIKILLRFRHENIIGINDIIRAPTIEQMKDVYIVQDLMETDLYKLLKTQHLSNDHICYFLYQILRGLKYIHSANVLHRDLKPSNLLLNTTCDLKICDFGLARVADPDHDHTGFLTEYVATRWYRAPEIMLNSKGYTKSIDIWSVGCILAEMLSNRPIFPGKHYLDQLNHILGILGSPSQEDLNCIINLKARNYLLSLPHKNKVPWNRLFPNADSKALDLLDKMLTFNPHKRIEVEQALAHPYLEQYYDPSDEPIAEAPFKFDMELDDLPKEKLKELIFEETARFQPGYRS

IC50 [1]	IC50 (ERK2 kinase)	SMILES
0.0387 µM	0.00401 µM	COC[C@H]1Cn2cc(-c3nc(Nc4ccnn4C)ncc3C)nc2C(=O)N1Cc1ccc(F)c(F)c1 [AZD0364, (R)-7-(3,4-difluorobenzyl)-6-(methoxymethyl)-2-(5-methyl-2-((1-methyl-1H-pyrazol-5-yl)amino)pyrimidin-4-yl)-6,7-dihydroimidazo[1,2-a]pyrazin-8(5H)-one, reference compound]
0.0301 µM	–	[2H]C([2H])([2H])n1nccc1Nc1ncc(C)c(-c2cn3c(n2)C(=O)N(Cc2ccc(F)c(F)c2)[C@@H](COC)C3)n1 [Compound I-1, (R)-7-(3,4-difluorobenzyl)-6-(methoxymethyl)-2-(5-methyl-2-((1-(methyl-d3)-1H-pyrazol-5-yl)amino)pyrimidin-4-yl)-6,7-dihydroimidazo[1,2-a]pyrazin-8(5H)-one]
0.0346 µM	0.00331 µM	[2H]C([2H])(c1ccc(F)c(F)c1)N1C(=O)c2nc(-c3nc(Nc4ccnn4C([2H])([2H])[2H])ncc3C)cn2C[C@@H]1COC [Compound I-3, (R)-7-((3,4-difluorophenyl)methyl-d2)-6-(methoxymethyl)-2-(5-methyl-2-((1-(methyl-d3)-1H-pyrazol-5-yl)amino)pyrimidin-4-yl)-6,7-dihydroimidazo[1,2-a]pyrazin-8(5H)-one]
0.0249 µM	0.00309 µM	[2H]C([2H])([2H])OC[C@H]1Cn2cc(-c3nc(Nc4ccnn4C)ncc3C)nc2C(=O)N1Cc1ccc(F)c(F)c1 [Compound I-4-1, (R)-7-(3,4-difluorobenzyl)-6-((methoxy-d3)-methyl)-2-(5-methyl-2-((1-methyl-1H-pyrazol-5-yl)amino)pyrimidin-4-yl)-6,7-dihydroimidazo[1,2-a]pyrazin-8(5H)-one]
0.0296 µM	0.00275 µM	[2H]C([2H])([2H])OC[C@H]1Cn2cc(-c3nc(Nc4ccnn4C([2H])([2H])[2H])ncc3C)nc2C(=O)N1Cc1ccc(F)c(F)c1 [Compound I-5-1, (R)-7-(3,4-difluorobenzyl)-6-((methoxy-d3)-methyl)-2-(5-methyl-2-((1-(methyl-d3)-1H-pyrazol-5-yl)amino)pyrimidin-4-yl)-6,7-dihydroimidazo[1,2-a]pyrazin-8(5H)-one]
